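Grown in 96-well plates, cells were treated for 48 hours with each compound at five concentrations. Insufficient inhibition: endpoint recorded as highest concentration tested. TGI denotes the concentration required for complete inhibition of growth.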
How the values were obtained:
Assay in all cases: inhibition of tumour cell growth, NCI panel, 48 h
MDA-MB-231 breast = tested on: MDA-MB-231 breast
SF-539 CNS = tested on: SF-539 CNS
KM12 colon = tested on: KM12 colon
M14 melanoma = tested on: M14 melanoma
CCRF-CEM leukemia = tested on: CCRF-CEM leukemia
UO-31 renal = tested on: UO-31 renal
COLO 205 colon = tested on: COLO 205 colon
SK-MEL-28 melanoma = tested on: SK-MEL-28 melanoma
NCI-H460 lung = tested on: NCI-H460 lung
OVCAR-3 ovarian = tested on: OVCAR-3 ovarian
HL-60(TB) leukemia = tested on: HL-60(TB) leukemia
HT29 colon = tested on: HT29 colon
SNB-75 CNS = tested on: SNB-75 CNS

Compound | TGI (MDA-MB-231 breast) [µM] | TGI (SF-539 CNS) [µM] | TGI (KM12 colon) [µM] | TGI (M14 melanoma) [µM] | TGI (CCRF-CEM leukemia) [µM] | TGI (UO-31 renal) [µM] | TGI (COLO 205 colon) [µM] | TGI (SK-MEL-28 melanoma) [µM] | TGI (NCI-H460 lung) [µM] | TGI (OVCAR-3 ovarian) [µM] | TGI (HL-60(TB) leukemia) [µM] | TGI (HT29 colon) [µM] | TGI (SNB-75 CNS) [µM]
CC1CC(=O)Nc2cc(Cl)ccc2N1C(=O)C1CC1 (configuration not stated) | > 100 | > 100 | > 100 | > 100 | > 100 | > 100 | > 100 | > 100 | > 100 | > 100 | > 100 | > 100 | –
NC(=O)c1cc(-c2ccc(-n3ccnc3)cc2)n[nH]c1=O | – | > 100 | – | > 100 | > 100 | > 100 | > 100 | > 100 | > 100 | – | > 100 | – | > 100
NCCC(=O)N[C@H](Cc1cc(O)c(O)c(SCC(NC(=O)CC[C@H](N)C(=O)O)C(=O)NCC(=O)O)c1)C(=O)O (some centres not stated) | > 50 | – | > 50 | > 50 | – | > 50 | > 50 | > 50 | > 50 | – | – | > 50 | > 50
CSc1ccccc1P(c1ccccc1SC)c1ccccc1SC | > 100 | > 100 | > 100 | > 100 | > 100 | > 100 | – | > 100 | – | – | – | – | –
COc1cc(C2S/C(=C/c3ccccc3)C(=O)N2c2cc(Cl)ccc2Cl)cc(OC)c1OC (configuration not stated) | > 100 | 42.9 | 38.8 | 62.4 | > 100 | > 100 | > 100 | > 100 | > 100 | > 100 | > 100 | > 100 | –
CCC(C)C(C(=O)N/N=C1/SCC(=O)N1C)C(=O)N/N=C1/SCC(=O)N1C (configuration not stated) | > 100 | > 100 | > 100 | > 100 | – | > 100 | > 100 | > 100 | > 100 | > 100 | 7.65 | > 100 | > 100
O=C(c1ccco1)C1CC(c2ccc3ccccc3c2O)=NN1 (configuration not stated) | > 100 | > 100 | > 100 | > 100 | > 100 | > 100 | > 100 | > 100 | > 100 | > 100 | – | > 100 | > 100
C=C(C)[C@@H]1C[C@H]2O[C@](O)(C(=C)CC(=O)/C=C(/C)C[C@@H]3OC(=O)[C@]24O[C@@H]34)[C@H]1O | > 100 | > 100 | > 100 | > 100 | > 100 | > 100 | > 100 | > 100 | > 100 | – | – | > 100 | > 100
C=C1CC(Cn2ccc(=O)[nH]c2=O)(c2ccc(-c3ccccc3)cc2)OC1=O (configuration not stated) | 5.8 | 8.89 | 12.9 | 3.58 | 1.2 | 16.5 | 0.338 | 5.34 | 28.4 | 4.03 | – | 3.27 | 26.7
CCOC(=O)[C@@H]1C[C@H]1c1ccc(O)c(O)c1 | 63.1 | > 100 | > 100 | 73.6 | – | > 100 | > 100 | > 100 | > 100 | > 100 | – | > 100 | –
Oc1[nH]c2ccccc2c1N=NC(=S)N1CCCCC1 | 2.79 | 1.49 | 1.62 | 2.23 | – | 3.23 | 11.2 | 12.2 | 2.29 | 1.7 | – | 10.8 | 6.71
O=[N+]([O-])c1ccc(N=Nc2c(O)ccc3cc(S(=O)(=O)O)ccc23)cc1 | > 100 | – | > 100 | > 100 | > 100 | > 100 | > 100 | > 100 | – | > 100 | – | > 100 | > 100
Cc1cccc(-n2c(C)nc3ccc(NC4OC(CO)C(O)C(O)C4O)cc3c2=O)c1 (configuration not stated) | > 100 | – | > 100 | – | – | > 100 | > 100 | > 100 | > 100 | > 100 | > 100 | > 100 | > 100
CC(NC(=O)C(OC(=O)C(C)NC(=O)OC(C)(C)C)C(C)C)C(=O)OC(C(=O)O)C(C)C (configuration not stated) | > 100 | > 100 | > 100 | > 100 | – | > 100 | > 100 | > 100 | > 100 | > 100 | – | > 100 | > 100
O=C(O)CN=C(C(=NCC(=O)O)c1ccccc1)c1ccccc1 | > 100 | – | > 100 | > 100 | – | > 100 | > 100 | > 100 | > 100 | > 100 | – | – | > 100
COc1ccc(OC)c([N+](=O)[O-])c1-c1nc2sccn2c1/C=N/N=C(N)N | > 100 | > 100 | 81.5 | > 100 | > 100 | > 100 | > 100 | 68.3 | > 100 | > 100 | > 100 | > 100 | –
O=C(O)c1nc2cc(C(F)(F)F)ccc2nc1Nc1ccc(Cl)c(Cl)c1 | 48.8 | 23.7 | 26.2 | 26 | – | 27.6 | 30.2 | – | 26.3 | 26.4 | – | 28.8 | 53.3
Clc1cc(OCc2nn3c(Cc4ccccc4)nnc3s2)ccc1OCc1nn2c(Cc3ccccc3)nnc2s1 | 66.8 | > 100 | > 100 | > 100 | – | > 100 | > 100 | > 100 | > 100 | > 100 | > 100 | > 100 | 39
CCCCC1Cc2ccccc2-c2n1c1ccccc1[n+]2C (configuration not stated) | > 100 | > 100 | > 100 | > 100 | > 100 | > 100 | – | 91 | > 100 | > 100 | 22.9 | 57.8 | –
CC(CN(C)C)C(=O)c1ccccc1C(=O)O (configuration not stated) | 81.6 | – | > 100 | 76.6 | 30.3 | > 100 | 66.3 | > 100 | – | 54.1 | 49.4 | > 100 | –

From PubChem BioAssay (NCI)
